Results reported in patent US8084457B2, “Pharmaceutically active 4,6-disubstituted aminopyrimidine derivatives as modulators of protein kinases” (Lead Discovery Center GmbH, priority 2003, dated 2011).

What was measured:
Type in all cases: biochemical
CDK9/Cyclin T1 = target: T1, CDK9/Cyclin T1 (Homo sapiens, UniProt P50750); assay: Kinase assay using CDK9/Cyclin T1; details: read-out: CDK9 (activity range)
T1 construct: made in house; host or cells: HEK293 cells, recombinant adenovirus
Source text: Cloning of CDK9 and Cyclin T1:
Both cDNA fragments were cloned by PCR into pDONR201 vectors using the gateway recombination system (Invitrogen) according to the manufacturer's recommendations. The fragments were subcloned into a gateway-adapted shuttle vector (pPM7) for production of recombinant adenovirus. All plasmids were verified by restriction digests and sequencing analysis.
Expression and Purification of CDK9/Cyclin T1 Proteins:
Expression and purification was in principle performed as described by Cotten et al. (M. Cotten et al., Nucleic acids research, 2003, 31(28), 128).
Kinase Assay Using CDK9/Cyclin T1:
Kinase assays were performed in principle as described by Cotten et al. (M. Cotten et al., Nucleic acids research, 2003, 31(28), 128).

CDK2/CyclinA = target: T2, CDK2/CyclinA (Homo sapiens, UniProt P24941); assay: Kinase assay determining CDK2/CyclinA activity; details: read-out: CDK2 (activity range)
T2 construct: purchased Proqinase
Method: Kinase Assays Determining CDK2/CyclinA and CDK5/p35 Activity:
Kinase assays were performed as described by the manufacturers recommendations (Proqinase for CDK2/CyclinA and Upsate for CDK5/p35).

CDK4 = CDK4 (Homo sapiens, UniProt P11802); assay: Kinase assay, CDK4 activity range (Table 2)
CDK4, sequence (P11802 whole entry, species assumed): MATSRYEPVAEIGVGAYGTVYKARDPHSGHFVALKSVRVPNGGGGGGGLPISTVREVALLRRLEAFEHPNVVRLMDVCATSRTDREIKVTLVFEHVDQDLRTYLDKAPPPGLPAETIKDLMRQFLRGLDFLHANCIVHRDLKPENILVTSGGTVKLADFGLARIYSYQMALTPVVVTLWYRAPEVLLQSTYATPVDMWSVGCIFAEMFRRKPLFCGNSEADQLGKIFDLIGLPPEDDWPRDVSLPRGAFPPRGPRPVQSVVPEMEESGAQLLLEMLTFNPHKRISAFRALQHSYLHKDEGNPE
CDK4, sequence (P24385 whole entry partner, species assumed): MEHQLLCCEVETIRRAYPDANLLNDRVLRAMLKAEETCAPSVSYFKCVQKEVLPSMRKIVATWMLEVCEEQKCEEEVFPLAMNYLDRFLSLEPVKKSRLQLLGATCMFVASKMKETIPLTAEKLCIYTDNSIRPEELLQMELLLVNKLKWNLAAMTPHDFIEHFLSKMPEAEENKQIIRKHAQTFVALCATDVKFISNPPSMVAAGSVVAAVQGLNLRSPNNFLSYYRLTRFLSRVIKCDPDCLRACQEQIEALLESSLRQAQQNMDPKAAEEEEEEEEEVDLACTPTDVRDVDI

T1 sequence (P50750 whole entry): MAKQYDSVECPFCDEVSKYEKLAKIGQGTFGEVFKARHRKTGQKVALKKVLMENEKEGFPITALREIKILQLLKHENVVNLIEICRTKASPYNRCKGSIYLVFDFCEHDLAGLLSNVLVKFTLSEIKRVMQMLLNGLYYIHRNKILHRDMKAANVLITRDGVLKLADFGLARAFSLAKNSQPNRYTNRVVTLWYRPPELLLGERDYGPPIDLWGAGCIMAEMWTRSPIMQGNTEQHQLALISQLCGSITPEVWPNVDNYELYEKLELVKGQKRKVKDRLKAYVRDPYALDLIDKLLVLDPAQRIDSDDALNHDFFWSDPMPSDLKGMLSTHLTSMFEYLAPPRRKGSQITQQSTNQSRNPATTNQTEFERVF
T1 sequence (O60563 whole entry partner): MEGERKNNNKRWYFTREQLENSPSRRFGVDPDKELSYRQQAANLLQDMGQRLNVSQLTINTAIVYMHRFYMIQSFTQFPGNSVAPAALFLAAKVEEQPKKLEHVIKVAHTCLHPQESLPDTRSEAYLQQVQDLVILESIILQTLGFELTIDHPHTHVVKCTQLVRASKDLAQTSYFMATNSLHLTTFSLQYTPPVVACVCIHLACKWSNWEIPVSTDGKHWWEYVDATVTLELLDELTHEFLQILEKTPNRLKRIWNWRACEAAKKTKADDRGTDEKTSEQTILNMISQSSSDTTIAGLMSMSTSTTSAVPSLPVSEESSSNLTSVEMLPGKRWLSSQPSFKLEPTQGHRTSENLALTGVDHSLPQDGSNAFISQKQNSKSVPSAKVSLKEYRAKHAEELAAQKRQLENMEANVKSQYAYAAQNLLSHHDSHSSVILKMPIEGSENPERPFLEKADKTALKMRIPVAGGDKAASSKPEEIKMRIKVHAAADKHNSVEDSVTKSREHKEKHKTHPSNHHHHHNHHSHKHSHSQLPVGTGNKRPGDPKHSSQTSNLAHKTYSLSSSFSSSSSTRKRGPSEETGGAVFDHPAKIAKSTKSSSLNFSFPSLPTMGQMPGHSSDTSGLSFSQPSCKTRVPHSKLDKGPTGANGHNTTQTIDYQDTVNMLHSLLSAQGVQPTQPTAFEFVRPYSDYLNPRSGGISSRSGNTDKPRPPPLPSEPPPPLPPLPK

Row | Structure (SMILES) | IC50 (CDK9/Cyclin T1) [µM] | IC50 (CDK2/CyclinA) [µM] | IC50 (CDK4) [µM]
1 | COc1ccccc1-c1cc(Nc2ccc(NC(=O)c3ccc(N)cc3)cc2)nc(N)n1 [(97)] | 1 to 10 | 10 to 250 | 
2 | COc1ccccc1-c1cc(Nc2ccc(NC(=O)c3ccc4ccccc4n3)cc2)ncn1 [(98)] | 0.001 to 1 | 10 to 250 | 
3 | CC(C)Oc1ccccc1-c1cc(NCCc2ccncc2)ncn1 [(99)] | 0.001 to 1 | 1 to 10 | 
4 | Cc1ccc(Nc2cc(-c3cccc(NS(C)(=O)=O)c3)ncn2)cc1NS(C)(=O)=O [(108)] | 1 to 10 | 0.001 to 1 | 
5 | Cc1ccc(Nc2cc(-c3cccc(N)c3)ncn2)cc1NS(=O)(=O)c1ccccc1 [(109)] | 0.001 to 1 | 1 to 10 | 
6 | Cc1ccc(Nc2cc(-c3cncnc3)ncn2)cc1NS(C)(=O)=O [(110)] | 1 to 10 | 1 to 10 | 
7 | COc1ccccc1-c1cc(Nc2ccc(NC(=O)NC(C)(C)C)cc2)ncn1 [(113)] | 0.001 to 1 | 1 to 10 | 
8 | COc1ccccc1-c1cc(Nc2cccc(C(N)=O)c2)ncn1 [(115)] | 0.001 to 1 | 0.001 to 1 | 
9 | Nc1cccc(-c2cc(Nc3ccc(S(N)(=O)=O)cc3)ncn2)c1 [(117)] | 1 to 10 | 0.001 to 1 | 
10 | COc1ccccc1-c1cc(Nc2ccc(NC(=O)C(C)(C)C)cc2C)ncn1 [(119)] | 10 to 250 | 10 to 250 | 
11 | CS(=O)(=O)Nc1cccc(Nc2cc(-c3cccc(N)c3)ncn2)c1 [(121)] | 0.001 to 1 | 1 to 10 | 
12 | COc1ccccc1-c1cc(Nc2cccc(NC(=O)C(C)(C)C)c2)ncn1 [(122)] | 1 to 10 | 1 to 10 | 
13 | CC(C)(C)C(=O)Nc1ccc(Nc2cc(-c3ccccc3F)ncn2)cc1 [(127)] | 10 to 250 | 10 to 250 | 
14 | COc1ccccc1-c1cc(Nc2ccc(NC(=O)c3ccc4c(c3)OCO4)cc2)ncn1 [(130)] | 0.001 to 1 | 1 to 10 | 
15 | COc1ccccc1-c1cc(Nc2ccc(C(=O)Nc3ccc(O)cc3)cc2)ncn1 [(136)] | 0.001 to 1 | 1 to 10 | 
16 | COc1ccccc1-c1cc(Nc2ccc(NC(=O)c3ccc4[nH]cnc4c3)cc2)ncn1 [(138)] | 1 to 10 | 10 to 250 | 
17 | COc1ccccc1-c1cc(Nc2ccc(NC(=O)c3ccc4ccccc4c3O)cc2)ncn1 [(139)] | 0.001 to 1 | 1 to 10 | 
18 | COc1ccccc1-c1cc(Nc2ccc(NC(=O)C(N)c3ccc4ccccc4c3)cc2)ncn1 (centres unmarked) [(146)] | 0.001 to 1 | 1 to 10 | 
19 | COc1ccccc1-c1cc(Nc2ccc(C(=O)NC3CCCCC3N)cc2)ncn1 (centres unmarked) [(148)] | 0.001 to 1 | 1 to 10 | 
20 | COc1ccccc1-c1cc(Nc2ccc(NS(=O)(=O)C(C)C)cc2)ncn1 [(153)] | 0.001 to 1 | 0.001 to 1 | 
21 | COc1ccccc1-c1cc(Nc2ccc(NS(=O)(=O)c3ccccc3)cc2)ncn1 [(155)] | 0.001 to 1 | 0.001 to 1 | 
22 | Cc1ccc(Nc2cc(-c3cccc(N(C)C)c3)ncn2)cc1NS(C)(=O)=O [(157)] | 0.001 to 1 | 1 to 10 | 
23 | Cc1ccc(Nc2cc(-c3ccccc3OC(C)C)ncn2)cc1NS(C)(=O)=O [(158)] | 0.001 to 1 | 0.001 to 1 | 
24 | COC(=O)/C=C/c1cccc(-c2cc(Nc3ccc(C)c(NS(C)(=O)=O)c3)ncn2)c1 [(182)] | 1 to 10 | 1 to 10 | 
25 | Cc1ccc(Nc2cc(-c3cccc(CO)c3)ncn2)cc1NS(C)(=O)=O [(183)] | 1 to 10 | 1 to 10 | 
26 | COc1ccccc1-c1cc(Nc2cccc(S(C)(=O)=O)c2)ncn1 [(185)] | 0.001 to 1 | 0.001 to 1 | 

Continued, values first:

Row | IC50 (CDK9/Cyclin T1) [µM] | IC50 (CDK2/CyclinA) [µM] | IC50 (CDK4) [µM] | Structure (SMILES)
27 | 1 to 10 | 1 to 10 |  | COc1cccc(-c2cc(Nc3ccc(C)c(NS(C)(=O)=O)c3)ncn2)c1 [(100)]
28 | 0.001 to 1 | 1 to 10 |  | COc1ccccc1-c1cc(Nc2ccc(NC(=O)C(c3ccccc3)N(C)C)cc2)ncn1 (centres unmarked) [(101)]
29 | 0.001 to 1 | 10 to 250 |  | COc1ccccc1-c1cc(Nc2ccc(NC(=O)NCc3ccc(C)cc3)cc2)ncn1 [(112)]
30 | 10 to 250 | 10 to 250 |  | CC(C)(C)C(=O)Nc1ccc(Nc2cc(-c3ccccc3C(F)(F)F)ncn2)cc1 [(114)]
31 | 0.001 to 1 | 0.001 to 1 |  | CCCS(=O)(=O)Nc1cc(Nc2cc(-c3cccc(N)c3)ncn2)ccc1C [(116)]
32 | 1 to 10 | 1 to 10 |  | CS(=O)(=O)Nc1cc(Nc2cc(-c3cccc(N)c3)ncn2)ccc1OCc1ccccc1 [(120)]
33 | 1 to 10 | 1 to 10 |  | COc1ccccc1-c1cc(Nc2ccc(N)cc2C)ncn1 [(123)]
34 | 0.001 to 1 | 1 to 10 |  | COc1ccccc1-c1cc(Nc2ccc(C(=O)Nc3ccc(N4CCOCC4)cc3)cc2)ncn1 [(125)]
35 | 1 to 10 | 10 to 250 |  | C=Cc1ccccc1-c1cc(Nc2ccc(NC(=O)C(C)(C)C)cc2)ncn1 [(126)]
36 | 10 to 250 | 1 to 10 |  | CCc1ccccc1-c1cc(Nc2ccc(NC(=O)C(C)(C)C)cc2)ncn1 [(131)]
37 | 0.001 to 1 | 1 to 10 |  | COc1ccccc1-c1cc(Nc2ccc(NC(=O)c3c[nH]c4ccccc34)cc2)ncn1 [(133)]
38 | 1 to 10 | 10 to 250 |  | COc1ccccc1-c1cc(Nc2ccc(C(=O)Nc3ccc(C(C)C)cc3)cc2)ncn1 [(137)]
39 | 0.001 to 1 | 10 to 250 |  | Cc1ccc(Nc2cc(-c3cccc(N)c3)ncn2)cc1NS(=O)(=O)c1cccc2cccnc12 [(142)]
40 | 0.001 to 1 | 0.001 to 1 |  | Cc1ccc(Nc2cc(-c3cccc(N)c3)ncn2)cc1NS(=O)(=O)c1cn(C)cn1 [(144)]
41 | 1 to 10 |  | 1 to 10 | COc1ccccc1-c1cc(Nc2ccc(C(=O)N3CCOCC3)cc2)ncn1 [(147)]
42 | 10 to 250 | 10 to 250 |  | Nc1ccc(C(=O)Nc2ccc(Nc3cc(-c4ccccc4O)ncn3)cc2)cc1 [(151)]

Row | IC50 (CDK9/Cyclin T1) [µM] | IC50 (CDK2/CyclinA) [µM] | IC50 (CDK4) [µM] | Structure (SMILES)
43 | 10 to 250 | 10 to 250 |  | COc1ccccc1-c1ncnc(Nc2ccc(N)cc2)c1C [(152)]
44 | 0.001 to 1 | 0.001 to 1 |  | CCCS(=O)(=O)Nc1ccc(Nc2cc(-c3ccccc3OC)ncn2)cc1 [(154)]
45 | 0.001 to 1 | 0.001 to 1 |  | Cc1ccc(Nc2cc(-c3ccccc3OCc3ccccc3)ncn2)cc1NS(C)(=O)=O [(156)]
46 | 0.001 to 1 | 0.001 to 1 |  | COc1ccccc1-c1cc(Nc2ccc(C)c(NS(C)(=O)=O)c2)ncn1 [(162)]
47 | 1 to 10 | 1 to 10 |  | Cc1ccc(Nc2cc(-c3cccc(C#N)c3)ncn2)cc1NS(C)(=O)=O [(163)]
48 | 0.001 to 1 | 0.001 to 1 |  | O=C(Nc1ccc(Nc2cc(-c3ccccc3OCc3ccccc3)ncn2)cc1)[C@@H]1CCCCN1 [(164)]
49 | 1 to 10 | 1 to 10 |  | Cc1ccc(Nc2cc(-c3cccc(C=O)c3)ncn2)cc1NS(C)(=O)=O [(165)]
50 | 1 to 10 |  | 1 to 10 | O=Cc1cccc(-c2cc(Nc3ccc(NC(=O)[C@@H]4CCCCN4)cc3)ncn2)c1 [(168)]
51 | 0.001 to 1 | 1 to 10 |  | O=C(Nc1ccc(Nc2cc(-c3ccc(Oc4ccccc4)cc3)ncn2)cc1)[C@@H]1CCCCN1 [(174)]
52 | 0.001 to 1 | 1 to 10 |  | COc1ncccc1-c1cc(Nc2ccc(C)c(NS(C)(=O)=O)c2)ncn1 [(176)]
53 | 0.001 to 1 | 0.001 to 1 |  | Cc1ccc(Nc2cc(-c3ccccc3O)ncn2)cc1NS(C)(=O)=O [(181)]
54 | 0.001 to 1 | 1 to 10 |  | CCCCNS(=O)(=O)c1cccc(Nc2cc(-c3ccccc3OC)ncn2)c1 [(184)]
55 | 1 to 10 |  | 1 to 10 | O=C(Nc1ccc(Nc2cc(-c3ccccc3OC(F)(F)F)ncn2)cc1)[C@@H]1CCCCN1 [(190)]
56 | 0.001 to 1 | 10 to 250 |  | O=C(Nc1ccc(Nc2cc(-c3ccccc3Cl)ncn2)cc1)[C@@H]1CCCCN1 [(192)]
57 | 0.001 to 1 | 1 to 10 |  | Nc1cccc(-c2cc(Nc3cccc(S(N)(=O)=O)c3)ncn2)c1 [(214)]
58 | 0.001 to 1 | 0.001 to 1 |  | COc1ccc(-c2cc(Nc3cccc(S(N)(=O)=O)c3)ncn2)cc1 [Compound 215]
